Laboratory results: US10329309B2, “3-(3H-imidazo[4,5-B]pyridin-2-yl)-1H-pyrazolo[4,3-B]pyridines and therapeutic uses thereof” (Samumed, LLC, priority 2015, dated 2019)

Columns and labels:
Format in all cases: cell-based
SW480 colon cancer cells = assay: Cell viability assay (CellTiter-Blue), four days; conditions: Homo sapiens, 96 h; for EC50: CellTiter-Blue cell viability; for inhibition at 10 µM: read-out: percent inhibition at 10 μM (given for EC50 of >10 μM)
Method in brief: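 SW480 cells (~2×10^3 per well) were exposed to compound for four days at 37 °C/5% CO2, using 8-point 1:3 dilutions from 10 μM to 0.0045 μM in duplicate. Viability was read by resazurin reduction (CellTiter-Blue, ~3 h, Ex 560/Em 590 nm). EC50 came from non-linear regression; above 10 μM, percent inhibition at 10 μM is given.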

[1] = test system: primary human fibroblasts derived from IPF patients (LL29 cells), α-smooth muscle actin (αSMA); assay: Inhibition of the fibrotic process: TGF-β1-treated primary human fibroblasts from IPF patients, αSMA staining; conditions: Fibroblast, 96 h, 4 days; for EC50: LL29 fibroblasts from IPF patients, TGF-β1 20 ng/mL, inhibition of fibrotic process; for inhibition at 10 µM: LL29 fibroblasts, TGF-β1 treated, read-out: percent inhibition at 10 μM (given for EC50 of >10 μM)
Method in brief: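 LL29 cells plated in F12 with 1% FBS, compounds added as 11-point 1:2 series (10 μM to 1.87 nM, 0.1% DMSO), then TGF-β1 20 ng/mL; 4 days at 37 °C. Fixed, αSMA immunostained, imaged; SYTOX-positive cells excluded. % αSMA-positive cells normalized to TGF-β1 wells; EC50 by non-linear regression, or % inhibition at 10 μM.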

[2] = test system: Wnt activity (Sp5-Luc reporter, SW480 colon carcinoma cells); assay: Screening assay for Wnt activity: Sp5-Luc reporter gene assay in SW480 cells; conditions: Homo sapiens; for inhibition at 10 µM: 10 μM compound, read-out: percent inhibition at 10 μM (given for EC50 of >10 μM); for EC50: overnight incubation, 10-point dose-response from 10 μM
Method in brief: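 SW480 cells stably carrying Sp5-Luc reporter (eight TCF/LEF sites) plated at 4,000/well in 1% FBS medium with compound (10-point 1:3 series from 10 μM, 0.1% DMSO) overnight at 37 °C. BrightGlo luminescence normalized to DMSO; EC50 by four-parameter fit, else % inhibition at 10 μM.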

c1cc(-c2ccnc3[nH]c(-c4n[nH]c5ccc(-c6cncc(OC7CCNCC7)c6)nc45)nc23)ccn1 [Compound 576, 5-(5-(Piperidin-4-yloxy)pyridin-3-yl)-3-(7-(pyridin-4-yl)-3H-imidazo[4,5-b]pyridin-2-yl)-1H-pyrazolo[4,3-b]pyridine]
EC50 (SW480 colon cancer cells): > 10 µM
inhibition at 10 µM (SW480 colon cancer cells): 1.7%
EC50 [1]: 4.07 µM
inhibition at 10 µM [2]: 8.9%
EC50 [2]: > 10 µM

c1ccc(COc2cncc(-c3ccc4[nH]nc(-c5nc6c(-c7ccncc7)ccnc6[nH]5)c4n3)c2)cc1 [Compound 582, 5-(5-(Benzyloxy)pyridin-3-yl)-3-(7-(pyridin-4-yl)-3H-imidazo[4,5-b]pyridin-2-yl)-1H-pyrazolo[4,3-b]pyridine]
EC50 (SW480 colon cancer cells): > 10 µM
inhibition at 10 µM (SW480 colon cancer cells): 2.6%
EC50 [1]: 0.648 µM
inhibition at 10 µM [2]: 5.8%
EC50 [2]: > 10 µM

c1cc(-c2ccnc3[nH]c(-c4n[nH]c5ccc(-c6cnccn6)nc45)nc23)ccn1 [Compound 584, 5-(Pyrazin-2-yl)-3-(7-(pyridin-4-yl)-3H-imidazo[4,5-b]pyridin-2-yl)-1H-pyrazolo[4,3-b]pyridine]
EC50 (SW480 colon cancer cells): > 10 µM
inhibition at 10 µM (SW480 colon cancer cells): 10.8%
EC50 [1]: > 10 µM
inhibition at 10 µM [1]: 4.5%
inhibition at 10 µM [2]: 8.5%
EC50 [2]: > 10 µM

O=C(CC1CCNCC1)Nc1cncc(-c2ccc3[nH]nc(-c4nc5c(-c6ccccn6)ccnc5[nH]4)c3n2)c1 [Compound 593, 2-(Piperidin-4-yl)-N-(5-(3-(7-(pyridin-2-yl)-3H-imidazo[4,5-b]pyridin-2-yl)-1H-pyrazolo[4,3-b]pyridin-5-yl)pyridin-3-yl)acetamide]
EC50 (SW480 colon cancer cells): > 10 µM
inhibition at 10 µM (SW480 colon cancer cells): 16.7%
EC50 [1]: 0.913 µM
inhibition at 10 µM [2]: 29.3%
EC50 [2]: > 10 µM

c1cc(N2CCCCC2)c2nc(-c3n[nH]c4ccc(-c5cncc(OCCN6CCCC6)c5)nc34)[nH]c2n1 [Compound 610, 3-(7-(Piperidin-1-yl)-3H-imidazo[4,5-b]pyridin-2-yl)-5-(5-(2-(pyrrolidin-1-yl)ethoxy)pyridin-3-yl)-1H-pyrazolo[4,3-b]pyridine]
EC50 (SW480 colon cancer cells): > 10 µM
inhibition at 10 µM (SW480 colon cancer cells): 3.5%
EC50 [1]: 2.27 µM
inhibition at 10 µM [2]: 4.8%
EC50 [2]: > 10 µM

COc1cncc(-c2ccc3[nH]nc(-c4nc5c(N6CCCCC6)ccnc5[nH]4)c3n2)c1 [Compound 612, 5-(5-Methoxypyridin-3-yl)-3-(7-(piperidin-1-yl)-3H-imidazo[4,5-b]pyridin-2-yl)-1H-pyrazolo[4,3-b]pyridine]
EC50 (SW480 colon cancer cells): > 10 µM
inhibition at 10 µM (SW480 colon cancer cells): 6.1%
EC50 [1]: > 10 µM
inhibition at 10 µM [1]: 30.3%
inhibition at 10 µM [2]: 5.8%
EC50 [2]: > 10 µM

Cc1cn(-c2ccnc3[nH]c(-c4n[nH]c5ccc(C6=CCNCC6)nc45)nc23)cn1 [Compound 618, 3-(7-(4-Methyl-1H-imidazol-1-yl)-3H-imidazo[4,5-b]pyridin-2-yl)-5-(1,2,3,6-tetrahydropyridin-4-yl)-1H-pyrazolo[4,3-b]pyridine]
EC50 (SW480 colon cancer cells): > 10 µM
inhibition at 10 µM (SW480 colon cancer cells): 2.8%
EC50 [1]: > 10 µM
inhibition at 10 µM [1]: 0%
inhibition at 10 µM [2]: 8.7%
EC50 [2]: > 10 µM

Cc1cn(-c2ccnc3[nH]c(-c4n[nH]c5ccc(-c6cncc(N7CC(N)C7)n6)nc45)nc23)cn1 [Compound 622, 1-(6-(3-(7-(4-Methyl-1H-imidazol-1-yl)-3H-imidazo[4,5-b]pyridin-2-yl)-1H-pyrazolo[4,3-b]pyridin-5-yl)pyrazin-2-yl)azetidin-3-amine]
EC50 (SW480 colon cancer cells): > 10 µM
inhibition at 10 µM (SW480 colon cancer cells): 4.7%
EC50 [1]: 4.82 µM
inhibition at 10 µM [2]: 9.8%
EC50 [2]: > 10 µM

Cc1cn(-c2ccnc3[nH]c(-c4n[nH]c5ccc(-c6cncc(OCCN(C)C)c6)nc45)nc23)cn1 [Compound 627, N,N-Dimethyl-2-((5-(3-(7-(4-methyl-1H-imidazol-1-yl)-3H-imidazo[4,5-b]pyridin-2-yl)-1H-pyrazolo[4,3-b]pyridin-5-yl)pyridin-3-yl)oxy)ethan-1-amine]
EC50 (SW480 colon cancer cells): > 10 µM
inhibition at 10 µM (SW480 colon cancer cells): 14.8%
EC50 [1]: 4.8 µM
inhibition at 10 µM [2]: 22.4%
EC50 [2]: > 10 µM

CN1CCN(c2ccnc3[nH]c(-c4n[nH]c5ccc(-c6cncc(OC7CCCCC7)c6)nc45)nc23)CC1 [Compound 639, 5-(5-(Cyclohexyloxy)pyridin-3-yl)-3-(7-(4-methylpiperazin-1-yl)-3H-imidazo[4,5-b]pyridin-2-yl)-1H-pyrazolo[4,3-b]pyridine]
EC50 (SW480 colon cancer cells): 5.85 µM
EC50 [1]: 3.27 µM
EC50 [2]: 4.06 µM

CN1CCN(c2ccnc3[nH]c(-c4n[nH]c5ccc(-c6cnccn6)nc45)nc23)CC1 [Compound 648, 3-(7-(4-Methylpiperazin-1-yl)-3H-imidazo[4,5-b]pyridin-2-yl)-5-(pyrazin-2-yl)-1H-pyrazolo[4,3-b]pyridine]
EC50 (SW480 colon cancer cells): 3.91 µM
EC50 [1]: > 10 µM
inhibition at 10 µM [1]: 0%
EC50 [2]: 4.34 µM

c1cnc2[nH]c(-c3n[nH]c4ccc(-c5cn[nH]c5)nc34)nc2c1 [Compound 651, 3-(3H-Imidazo[4,5-b]pyridin-2-yl)-5-(1H-pyrazol-4-yl)-1H-pyrazolo[4,3-b]pyridine]
EC50 (SW480 colon cancer cells): > 10 µM
inhibition at 10 µM (SW480 colon cancer cells): 3.1%
EC50 [1]: > 10 µM
inhibition at 10 µM [1]: 28.6%
inhibition at 10 µM [2]: 12%
EC50 [2]: > 10 µM

c1cnc2[nH]c(-c3n[nH]c4ccc(-c5cncc(OC6CCNCC6)c5)nc34)nc2c1 [Compound 656, 3-(3H-Imidazo[4,5-b]pyridin-2-yl)-5-(5-(piperidin-4-yloxy)pyridin-3-yl)-1H-pyrazolo[4,3-b]pyridine]
EC50 (SW480 colon cancer cells): > 10 µM
inhibition at 10 µM (SW480 colon cancer cells): 11.4%
EC50 [1]: 6.27 µM
inhibition at 10 µM [2]: 22.1%
EC50 [2]: > 10 µM

Oc1cncc(-c2ccc3[nH]nc(-c4nc5cccnc5[nH]4)c3n2)c1 [Compound 661, 5-(3-(3H-Imidazo[4,5-b]pyridin-2-yl)-1H-pyrazolo[4,3-b]pyridin-5-yl) pyridin-3-ol]
EC50 (SW480 colon cancer cells): > 10 µM
inhibition at 10 µM (SW480 colon cancer cells): 13%
EC50 [1]: > 10 µM
inhibition at 10 µM [1]: 6.2%
inhibition at 10 µM [2]: 7.2%
EC50 [2]: > 10 µM

O=C(CC1CCNCC1)Nc1cncc(-c2ccc3[nH]nc(-c4nc5c(-c6ccsc6)ccnc5[nH]4)c3n2)c1 [Compound 673, 2-(Piperidin-4-yl)-N-(5-(3-(7-(thiophen-3-yl)-3H-imidazo[4,5-b]pyridin-2-yl)-1H-pyrazolo[4,3-b]pyridin-5-yl)pyridin-3-yl)acetamide]
EC50 (SW480 colon cancer cells): > 10 µM
inhibition at 10 µM (SW480 colon cancer cells): 0.6%
EC50 [1]: 4.75 µM
inhibition at 10 µM [2]: 26.9%
EC50 [2]: > 10 µM

Cc1ncc(-c2ccc3[nH]nc(-c4nc5c(-c6ccoc6)ccnc5[nH]4)c3n2)n1C [Compound 685, 5-(1,2-Dimethyl-1H-imidazol-5-yl)-3-(7-(furan-3-yl)-3H-imidazo[4,5-b]pyridin-2-yl)-1H-pyrazolo[4,3-b]pyridine]
EC50 (SW480 colon cancer cells): 4.19 µM
EC50 [1]: > 10 µM
inhibition at 10 µM [1]: 0%
EC50 [2]: 2.82 µM

c1cc(-c2ccoc2)c2nc(-c3n[nH]c4ccc(-c5cncc(OCCN6CCCC6)c5)nc34)[nH]c2n1 [Compound 690, 3-(7-(Furan-3-yl)-3H-imidazo[4,5-b]pyridin-2-yl)-5-(5-(2-(pyrrolidin-1-yl)ethoxy)pyridin-3-yl)-1H-pyrazolo[4,3-b]pyridine]
EC50 (SW480 colon cancer cells): > 10 µM
inhibition at 10 µM (SW480 colon cancer cells): 26.6%
EC50 [1]: 4.75 µM
inhibition at 10 µM [2]: 37.6%
EC50 [2]: > 10 µM

COc1cncc(-c2ccc3[nH]nc(-c4nc5c(-c6ccoc6)ccnc5[nH]4)c3n2)c1 [Compound 692, 3-(7-(Furan-3-yl)-3H-imidazo[4,5-b]pyridin-2-yl)-5-(5-methoxypyridin-3-yl)-1H-pyrazolo[4,3-b]pyridine]
EC50 (SW480 colon cancer cells): > 10 µM
inhibition at 10 µM (SW480 colon cancer cells): 17.6%
EC50 [1]: 1.32 µM
inhibition at 10 µM [2]: 15.3%
EC50 [2]: > 10 µM

Cn1cc(-c2ccc3[nH]nc(-c4nc5c(-c6cccs6)ccnc5[nH]4)c3n2)cn1 [Compound 700, 5-(1-Methyl-1H-pyrazol-4-yl)-3-(7-(thiophen-2-yl)-3H-imidazo[4,5-b]pyridin-2-yl)-1H-pyrazolo[4,3-b]pyridine]
EC50 (SW480 colon cancer cells): > 10 µM
inhibition at 10 µM (SW480 colon cancer cells): 0.1%
EC50 [1]: 0.438 µM
inhibition at 10 µM [2]: 3.4%
EC50 [2]: > 10 µM

CN(C)CCOc1cncc(-c2ccc3[nH]nc(-c4nc5c(-c6cccs6)ccnc5[nH]4)c3n2)c1 [Compound 707, N,N-Dimethyl-2-((5-(3-(7-(thiophen-2-yl)-3H-imidazo[4,5-b]pyridin-2-yl)-1H-pyrazolo[4,3-b]pyridin-5-yl)pyridin-3-yl)oxy)ethan-1-amine]
EC50 (SW480 colon cancer cells): 3.87 µM
EC50 [1]: 2.43 µM
EC50 [2]: 3.57 µM

Cc1ccc(-c2ccnc3[nH]c(-c4n[nH]c5ccc(-c6cncc(OC7CCCCC7)c6)nc45)nc23)s1 [Compound 735, 5-(5-(Cyclohexyloxy)pyridin-3-yl)-3-(7-(5-methylthiophen-2-yl)-3H-imidazo[4,5-b]pyridin-2-yl)-1H-pyrazolo[4,3-b]pyridine]
EC50 (SW480 colon cancer cells): > 10 µM
inhibition at 10 µM (SW480 colon cancer cells): 10.9%
EC50 [1]: 0.139 µM
EC50 [2]: 0.984 µM
